Columns and labels:
Assay type in all cases: cell-based
[1] = Toxicity studies, microtetrazolium test; details: dog, MDCK cells (ATCC CCL-34)
[2] = system: Influenza virus A/Puerto Rico/8/34 (H1N1); details: ratio of CC50 to IC50, MDCK cell line
[3] = system: Coxsackie virus B3; assay: Cell protection assay, Coxsackie virus B3 in Vero cells; details: for IC50: Enterovirus B, B3, Vero, 72 h; for SI (selectivity index): ratio of CC50 to IC50, Coxsackie virus B3, Vero cell line

Row | Structure (SMILES) | CC50 at 48 h [1] [µM] | SI (selectivity index) [2] | IC50 [3] [µM] | antiviral properties against the Coxsackie virus B3 (in words) ([3]; Vero cell culture) | SI (selectivity index) [3]
1 | COC(=O)c1c(-c2ccc(OC)c(OC)c2)oc2c(F)c(F)c(F)c(F)c2c1=O [Compound 4a, Methyl 5,6,7,8-tetrafluoro-2-(3,4-dimethoxyphenyl)-4-oxo-4H-chromene-3-carboxylate] | 109 ± 8 | 2 | > 61 | – | –
2 | COC(=O)c1c(-c2ccc(OC)c(OC)c2)oc2c(F)c(F)c(F)cc2c1=O [Compound 5а, Methyl 6,7,8-trifluoro-2-(3,4-dimethoxyphenyl)-4-oxo-4H-chromene-3-carboxylate] | 508 ± 32 | 16 | 635 ± 42 | – | –
3 | COC(=O)c1c(-c2ccc(OC)c(OC)c2)oc2c(F)c(-n3ccnc3)c(F)c(F)c2c1=O [Compound 6a, Methyl 5,6,8-trifluoro-2-(3,4-dimethoxyphenyl)-7-(1H-imidazol-1-yl)-4-oxo-4H-chromene-3-carboxylate] | 61 ± 4 | 5 | > 65 | – | –
4 | COC(=O)c1c(-c2ccc(OC)c(OC)c2)oc2c(F)c(-n3ccnc3)c(F)cc2c1=O [Compound 7а, Methyl 6,8-difluoro-2-(3,4-dimethoxyphenyl)-7-(1H-imidazol-1-yl)-4-oxo-4H-chromene-3-carboxylate] | > 679 | – | > 226 | – | –
5 | COC(=O)c1c(-c2ccc(OC)cc2)oc2c(F)c(-n3ccnc3)c(F)c(O)c2c1=O [Compound 8b, Methyl 6,8-difluoro-5-hydroxy-7-(1H-imidazol-1-yl)-2-(4-methoxyphenyl)-4-oxo-4H-chromene-3-carboxylate] | 629 ± 41 | 16 | – | – | –
6 | COc1ccc(-c2cc(=O)c3c(F)c(F)c(-n4ccnc4)c(F)c3o2)cc1OC [Compound 13, 5,6,8-Trifluoro-2-(3,4-dimethoxyphenyl)-7-(1H-imidazol-1-yl)-4H-chromene-4-one] | > 746 | – | 29 ± 4 | demonstrated antiviral properties against the Coxsackie virus B3 | 26
7 | NC(=O)c1ncn([C@@H]2O[C@H](CO)[C@@H](O)[C@H]2O)n1 [ribavirin, reference compound] | > 2130 | – | 34 ± 4 | – | >63
